{"source": "patent US12433863B2", "about": "“Pharmaceutical compositions and uses directed to lysosomal storage disorders” (INTRABIO LIMITED, priority 2016, dated 2025)", "key": {"[1]": {"tested_on": "patients with cerebellar ataxia", "settings": "cited from earlier work"}, "[2]": {"tested_on": "patient genetically diagnosed with GM1 Gangliosidosis", "assay": "Case study of a GM1 Gangliosidosis patient (SARA, mRDS, EQ-5D-5L)", "assay_type": "in vivo, human", "settings": "after one month", "source_text": "The patient in this case study was a person who was genetically diagnosed with GM1 Gangliosidosis and who was not able to stand or walk by themself, was very limited in daily activities (eating, washing, dressing themself was not possible), and had ocular movement disorder, anarthria, and distinct problems in cognitive function and concentration (neurological examination was not possible).\nBefore treatment was commenced, examination of the patient indicated a Scale for Assessment and Rating of Ataxia (SARA) score of 35/40, a mRDS score of 15, and a EQ-5D-5L visual scale of 50.\nThe patient was started on therapy with acetyl-leucine at a dose of 1.5 g per day for the first week, followed by a dose of 3 g per day for the second week onwards."}}, "data": [{"smiles": "CC(=O)NC(CC(C)C)C(=O)O", "note": "(racemic) [acetyl-DL-leucine]", "values": [{"measurement": "Benefit in cerebellar ataxia, another case series", "setting": "[1]; Pelz et al. 2015", "value": "did not find benefit"}, {"measurement": "Temporal gait variability, quantitative gait analysis", "setting": "[1]; Schniepp et al. 2015", "value": "improved temporal gait variability"}, {"measurement": "Cerebellar ataxia symptoms, case series", "setting": "[1]; Strupp et al. 2013", "value": "symptomatic improvement of cerebellar ataxia"}, {"measurement": "SARA", "setting": "[2]; 1.5 g then 3 g per day", "value": "35/40"}, {"measurement": "Clinical re-examination findings", "setting": "[2]", "value": "stable general condition, increased gait (more fluent), and stable stance in natural position"}, {"measurement": "mRDS", "setting": "[2]", "value": 16}]}]}
